Patent publication US20200079765A1, “SUBSTITUTED HETEROARYL PYRROLONES AND SALTS THEREOF AND USE THEREOF AS HERBICIDAL ACTIVE SUBSTANCES” (Bayer CropScience Aktiengesellschaft, priority 2016, published 2020)

Assays:
[1] = system: Abutilon theophrasti; experiment: Pre-emergence herbicidal action (Experimental Part 1, B); assay type: in vivo; settings: scored visually after about 3 weeks
Summary of the method: (§1)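 Seeds were sown in pots and covered with soil; compounds formulated as WP or EC were sprayed onto the soil surface as aqueous suspension or emulsion with 0.5% additive at 600 l/ha water, at 1280 g/ha or 320 g/ha. Pots were held in the greenhouse and damage was scored visually after about 3 weeks as % versus untreated controls.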

[2] = system: Alopecurus myosuroides; experiment: as above; assay type: in vivo; settings: scored visually after about 3 weeks
Summary of the method: as §1

[3] = system: Amaranthus retroflexus; experiment: as above; assay type: in vivo; settings: scored visually after about 3 weeks
Summary of the method: as §1

[4] = system: Avena fatua; experiment: as above; assay type: in vivo; settings: scored visually after about 3 weeks
Summary of the method: as §1

[5] = system: Echinochloa crus-galli; experiment: as above; assay type: in vivo; settings: application rate 1280 g/ha, scored visually after about 3 weeks
Summary of the method: as §1

[6] = system: Hordeum murinum; experiment: as above; assay type: in vivo; settings: scored visually after about 3 weeks
Summary of the method: as §1

[7] = system: Ipomoea purpurea; experiment: as above; assay type: in vivo; settings: application rate 1280 g/ha, scored visually after about 3 weeks
Summary of the method: as §1

[8] = system: Lolium rigidum; experiment: as above; assay type: in vivo; settings: application rate 1280 g/ha, scored visually after about 3 weeks
Summary of the method: as §1

[9] = system: Matricaria inodora; experiment: as above; assay type: in vivo; settings: scored visually after about 3 weeks
Summary of the method: as §1

[10] = system: Polygonum convolvulus; experiment: as above; assay type: in vivo; settings: scored visually after about 3 weeks
Summary of the method: as §1

[11] = system: Setaria viridis; experiment: as above; assay type: in vivo; settings: scored visually after about 3 weeks
Summary of the method: as §1

[12] = system: Stellaria media; experiment: as above; assay type: in vivo; settings: scored visually after about 3 weeks
Summary of the method: as §1

[13] = system: Veronica persica; experiment: as above; assay type: in vivo; settings: application rate 1280 g/ha, scored visually after about 3 weeks
Summary of the method: as §1

[14] = system: Viola tricolor; experiment: as above; assay type: in vivo; settings: scored visually after about 3 weeks
Summary of the method: as §1

[15] = target: T1, photosystem II (PS II) (Spinacia oleracea, UniProt P69560); experiment: Measurement of the PS II activity in thylakoid membranes (DCPIP reduction, Experimental Part 3, Table E1); assay type: biochemical; settings: spinach thylakoid membranes
T1 construct: the chloroplasts were osmotically ruptured and the thylakoid membranes were then obtained by centrifugation; from tissue; host or cells: thylakoid membranes from fresh spinach leaves
Summary of the method: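 Spinach leaf thylakoid membranes in 50 mM phosphate pH 6.8, 10 mM KCl, 120 μM DCPIP, under light. Compounds added from 100 μM DMSO solution (2.5% DMSO final). DCPIP reduction read as absorbance decrease at 595 nm over 10 min at 22 °C, reported as percent-inhibition classes.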

| Compound | Abutilon theophrasti, herbicidal activity ([1]; application rate 320 g/ha) [%] | Abutilon theophrasti, herbicidal activity ([1]; application rate 1280 g/ha) [%] | Alopecurus myosuroides, herbicidal activity ([2]; application rate 320 g/ha) [%] | Alopecurus myosuroides, herbicidal activity ([2]; application rate 1280 g/ha) [%] | Amaranthus retroflexus, herbicidal activity ([3]; application rate 320 g/ha) [%] | Amaranthus retroflexus, herbicidal activity ([3]; application rate 1280 g/ha) [%] | Avena fatua, herbicidal activity ([4]; application rate 320 g/ha) [%] | Avena fatua, herbicidal activity ([4]; application rate 1280 g/ha) [%] | Echinochloa crus-galli, herbicidal activity [5] [%] | Hordeum murinum, herbicidal activity ([6]; application rate 1280 g/ha) [%] | Ipomoea purpurea, herbicidal activity [7] [%] | Lolium rigidum, herbicidal activity [8] [%] | Matricaria inodora, herbicidal activity ([9]; application rate 320 g/ha) [%] | Matricaria inodora, herbicidal activity ([9]; application rate 1280 g/ha) [%] | Polygonum convolvulus, herbicidal activity ([10]; application rate 320 g/ha) [%] | Polygonum convolvulus, herbicidal activity ([10]; application rate 1280 g/ha) [%] | Setaria viridis, herbicidal activity ([11]; application rate 320 g/ha) [%] | Setaria viridis, herbicidal activity ([11]; application rate 1280 g/ha) [%] | Stellaria media, herbicidal activity ([12]; application rate 320 g/ha) [%] | Stellaria media, herbicidal activity ([12]; application rate 1280 g/ha) [%] | also measured |
| --- | --- | --- | --- | --- | --- | --- | --- | --- | --- | --- | --- | --- | --- | --- | --- | --- | --- | --- | --- | --- | --- |
| CC1=CC(=O)N(c2cc(C(C)(C)C)on2)C1O (stereo not shown) [I.1-162, 5-Hydroxy-4-methyl-1-(5-tert-butyl-1,2-isoxazol-3-yl)-1,5-dihydro-2H-pyrrol-2-one] | 100 | 100 | 90 | 100 | 100 | 100 | 90 | 100 | 100 | 100 | 100 | 100 | 100 | 100 | 100 | 100 | 100 | 100 | 100 | 100 | Hordeum murinum, herbicidal activity ([6]; application rate 320 g/ha): 90%; Veronica persica, herbicidal activity [13]: 100%; Viola tricolor, herbicidal activity ([14]; application rate 320 g/ha): 100%; Viola tricolor, herbicidal activity ([14]; application rate 1280 g/ha): 100%; Effect (inhibition of PS II activity) [15]: ++++ (inhibition≥90%) |
| CCC(=O)OC1C(C)=CC(=O)N1c1cc(C(C)(C)C)on1 (stereo not shown) [I.5-162] | 100 | 100 | 90 | 90 | 100 | 100 | 90 | 90 | 100 | 100 | 90 | 90 | 100 | 100 | 100 | 100 | 100 | 100 | 100 | 100 | Veronica persica, herbicidal activity [13]: 100%; Viola tricolor, herbicidal activity ([14]; application rate 320 g/ha): 100%; Viola tricolor, herbicidal activity ([14]; application rate 1280 g/ha): 100%; Effect (inhibition of PS II activity) [15]: +++ (90%>inhibition≥70%) |
